Source: patent US20240116985A1, “STAPLED PEPTIDES AND METHODS THEREOF” (priority 2020, published 2024)

What was measured:
[1] = target: T1, full-length beta-Catenin (Uniprot ID P35222) (Homo sapiens, UniProt P35222); experiment: Fluorescence polarization IC50 (beta-catenin / 5FAM-TCF4 10-53 competition); format: binding; settings: fluorescence polarization; read-out: beta-Catenin FP IC50
T1 construct: 10 nM full-length beta-Catenin (Uniprot ID P35222)
T1 sequence (P35222 1-781): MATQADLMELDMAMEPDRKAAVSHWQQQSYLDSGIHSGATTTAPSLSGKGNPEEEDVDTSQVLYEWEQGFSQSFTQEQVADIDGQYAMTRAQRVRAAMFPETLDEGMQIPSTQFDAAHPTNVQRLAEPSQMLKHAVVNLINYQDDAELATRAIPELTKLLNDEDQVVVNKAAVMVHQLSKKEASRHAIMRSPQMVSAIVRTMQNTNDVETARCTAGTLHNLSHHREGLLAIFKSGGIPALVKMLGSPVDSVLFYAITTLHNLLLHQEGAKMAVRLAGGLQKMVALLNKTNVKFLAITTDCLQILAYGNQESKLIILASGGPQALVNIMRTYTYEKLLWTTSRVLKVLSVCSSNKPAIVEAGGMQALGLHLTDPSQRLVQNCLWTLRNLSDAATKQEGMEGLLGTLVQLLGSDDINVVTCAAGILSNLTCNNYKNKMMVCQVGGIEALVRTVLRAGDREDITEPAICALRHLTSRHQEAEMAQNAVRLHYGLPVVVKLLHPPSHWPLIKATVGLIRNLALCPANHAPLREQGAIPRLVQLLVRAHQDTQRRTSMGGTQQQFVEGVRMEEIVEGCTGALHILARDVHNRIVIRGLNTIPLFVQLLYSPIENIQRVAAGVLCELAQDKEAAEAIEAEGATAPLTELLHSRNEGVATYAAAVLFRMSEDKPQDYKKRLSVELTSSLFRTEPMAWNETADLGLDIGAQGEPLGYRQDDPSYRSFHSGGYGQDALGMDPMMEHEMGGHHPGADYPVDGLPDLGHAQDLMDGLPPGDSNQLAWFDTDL

[2] = target: T2, beta-catenin/TCF4 engagement (Homo sapiens, UniProt P35222); experiment: Nano-BRET target engagement assay (B-cat-Halo & TCF4-Luc in HEK293 cells); format: cell-based; settings: absolute IC50; read-out: NanoBRET Abs IC50
T2 construct: expressed in transfected cells; host or cells: HEK293
T2 sequence (P35222 1-781): T1 sequence (P35222 1-781)

| Compound | IC50 [1] [nM] | IC50 [2] [nM] |
| --- | --- | --- |
| CC(=O)N1CCC[C@]12CC=CCCCC1(CCCC=CCCCOC(=O)N3CC[C@@](C(=O)N[C@@H](Cc4ccccc4Cl)C(=O)N[C@@H](Cc4csc5ccccc45)C(=O)N[C@@H](CO)C(N)=O)(C3)NC(=O)[C@H](CC(C)C)NC(=O)[C@H](Cc3ccccc3)NC(=O)[C@H](C)NC(=O)[C@H](C)NC(=O)[C@H]([C@@H](C)O)NC(=O)[C@H](CC(=O)O)NC1=O)NC(=O)[C@H](CC(C)(C)C)NC(=O)[C@H](CC(=O)O)NC2=O (stereo partly drawn) [I-1172, Ac-PL3-Asp-Npg-B5-Asp-Thr-Ala-Ala-Phe-Leu-PyrS2-2C1F-BztA-Ser-NH2] | 45 | 19400 |
| CC(=O)N1CCC[C@]12CC=CCCCC1(CCCC=CCCCOC(=O)N3CC[C@@](C(=O)N[C@@H](Cc4ccsc4)C(=O)N[C@@H](Cc4csc5ccccc45)C(=O)N[C@@H](CCC(N)=O)C(N)=O)(C3)NC(=O)[C@H](CC(C)C)NC(=O)[C@H](Cc3ccccc3)NC(=O)C(C)(C)NC(=O)[C@H](C)NC(=O)[C@H](CC(=O)O)NC(=O)[C@H](CC(=O)O)NC1=O)NC(=O)[C@H](CC(C)(C)C)NC(=O)[C@H](CC(=O)O)NC2=O (stereo partly drawn) [I-1178, Ac-PL3-Asp-Npg-B5-Asp-Asp-Ala-Aib-Phe-Leu-PyrS2-3Thi-BztA-Gln-NH2] | 54.5 | 28800 |
| C[C@@H]1NC(=O)[C@H](C)NC(=O)[C@H](CC(=O)O)NC(=O)[C@H](CC(=O)O)NC(=O)C2(CCCC=CCCCOC(=O)N3CC[C@@](C(=O)N[C@@H](Cc4ccsc4)C(=O)N[C@@H](Cc4csc5ccccc45)C(=O)N[C@@H](CCC(N)=O)C(N)=O)(C3)NC(=O)[C@H](CC(N)=O)NC(=O)[C@H](Cc3ccccc3)NC1=O)CCCC=CC[C@]1(CCCN1S(C)(=O)=O)C(=O)N[C@@H](CC(=O)O)C(=O)N[C@@H](CC(C)(C)C)C(=O)N2 (stereo partly drawn) [I-1218, MeSO2-PL3-Asp-Npg-B5-Asp-Asp-Ala-Ala-Phe-Asn-PyrS2-3Thi-BztA-Gln-NH2] | 10 | > 20000 |
| C[C@@H]1NC(=O)[C@H](C)NC(=O)[C@H](CN(CC(=O)O)CC(F)(F)F)NC(=O)[C@H](CC(=O)O)NC(=O)C2(CCCC=CCCCOC(=O)N3CC[C@@](C(=O)N[C@@H](Cc4ccsc4)C(=O)N[C@@H](Cc4csc5ccccc45)C(=O)N[C@@H](CCC(N)=O)C(N)=O)(C3)NC(=O)[C@H](CC(N)=O)NC(=O)[C@H](Cc3ccccc3)NC1=O)CCCC=CC[C@]1(CCCN1S(C)(=O)=O)C(=O)N[C@@H](CC(=O)O)C(=O)N[C@@H](CC(C)(C)C)C(=O)N2 (stereo partly drawn) [I-1219, MeSO2-PL3-Asp-Npg-B5-Asp-TfeGA-Ala-Ala-Phe-Asn-PyrS2-3Thi-BztA-Gln-NH2] | 7 | > 20000 |
| CC(=O)N1CCC[C@]12CC=CCCCC1(CCCC=CCCCOC(=O)N3CC[C@@](C(=O)N[C@@H](Cc4ccsc4)C(=O)N[C@@H](Cc4csc5ccccc45)C(=O)N[C@@H](CCC(N)=O)C(N)=O)(C3)NC(=O)[C@H](CC(N)=O)NC(=O)[C@H](Cc3ccccc3)NC(=O)[C@H](C)NC(=O)[C@H](C)NC(=O)[C@H](CC(=O)O)NC(=O)[C@H](CC(=O)O)NC1=O)NC(=O)[C@H](CC(C)(C)C)NC(=O)[C@H](CC(N)=O)NC2=O (stereo partly drawn) [I-1220, Ac-PL3-Asn-Npg-B5-Asp-Asp-Ala-Ala-Phe-Asn-PyrS2-3Thi-BztA-Gln-NH2] | 11 | 17300 |
| CC(=O)N1CCC[C@]12CC=CCCCC1(CCCC=CCCCOC(=O)N3CC[C@@](C(=O)N[C@@H](Cc4ccsc4)C(=O)N[C@@H](Cc4ccc5ccccc5c4)C(=O)N[C@@H](CCC(N)=O)C(N)=O)(C3)NC(=O)[C@H]([C@@H](C)O)NC(=O)[C@H](Cc3ccccc3)NC(=O)[C@H](C)NC(=O)[C@H](C)NC(=O)[C@H](CC(=O)O)NC(=O)[C@H](CC(=O)O)NC1=O)NC(=O)[C@H](CC(C)(C)C)NC(=O)[C@H](CC(=O)O)NC2=O (stereo partly drawn) [I-1233, Ac-PL3-Asp-Npg-B5-Asp-Asp-Ala-Ala-Phe-Thr-PyrS2-3Thi-2NapA-Gln-NH2] | 24 | 54500 |

Further lines, results first:

| IC50 [1] [nM] | IC50 [2] [nM] | Compound |
| --- | --- | --- |
| 14 | 23400 | CC(=O)N1CCC[C@]12CC=CCCCC1(CCCC=CCCCOC(=O)N3CC[C@@](C(=O)N[C@@H](Cc4ccsc4)C(=O)N[C@@H](Cc4csc5ccccc45)C(=O)N[C@@H](CCC(N)=O)C(N)=O)(C3)NC(=O)[C@H](CC(C)C)NC(=O)[C@H](Cc3ccccc3)NC(=O)[C@H](C)NC(=O)[C@H](C)NC(=O)[C@H](CC(=O)O)NC(=O)[C@H](CC(=O)O)NC1=O)NC(=O)[C@H](CC(C)(C)C)NC(=O)[C@H](CC(N)=O)NC2=O (stereo partly drawn) [I-1221, Ac-PL3-Asn-Npg-B5-Asp-Asp-Ala-Ala-Phe-Leu-PyrS2-3Thi-BztA-Gln-NH2] |
| 31 | 43300 | CC(=O)N1CCC[C@]12CC=CCCCC1(CCCC=CCCCOC(=O)N3CC[C@@](C(=O)N[C@@H](Cc4ccsc4)C(=O)N[C@@H](Cc4cccc5ccccc45)C(=O)N[C@@H](CCC(N)=O)C(N)=O)(C3)NC(=O)[C@H]([C@@H](C)O)NC(=O)[C@H](Cc3ccccc3)NC(=O)[C@H](C)NC(=O)[C@H](C)NC(=O)[C@H](CC(=O)O)NC(=O)[C@H](CC(=O)O)NC1=O)NC(=O)[C@H](CC(C)(C)C)NC(=O)[C@H](CC(=O)O)NC2=O (stereo partly drawn) [I-1232, Ac-PL3-Asp-Npg-B5-Asp-Asp-Ala-Ala-Phe-Thr-PyrS2-3Thi-1NapA-Gln-NH2] |
| 41 | 23900 | CC(=O)N1CCC[C@]12CC=CCCCC1(CCCC=CCCCOC(=O)N3CC[C@@](C(=O)N[C@@H](Cc4ccsc4)C(=O)N[C@@H](Cc4cccc5ccccc45)C(=O)N[C@@H](CCC(N)=O)C(N)=O)(C3)NC(=O)[C@H](CC(C)C)NC(=O)[C@H](Cc3ccccc3)NC(=O)[C@H](C)NC(=O)[C@H](C)NC(=O)[C@H](CC(=O)O)NC(=O)[C@H](CC(=O)O)NC1=O)NC(=O)[C@H](CC(C)(C)C)NC(=O)[C@H](CC(=O)O)NC2=O (stereo partly drawn) [I-1234, Ac-PL3-Asp-Npg-B5-Asp-Asp-Ala-Ala-Phe-Leu-PyrS2-3Thi-1NapA-Gln-NH2] |
| 27 | 24800 | CC(=O)N1CCC[C@]12CC=CCCCC1(CCCC=CCCCOC(=O)N3CC[C@@](C(=O)N[C@@H](Cc4ccsc4)C(=O)N[C@@H](Cc4ccc5ccccc5c4)C(=O)N[C@@H](CCC(N)=O)C(N)=O)(C3)NC(=O)[C@H](CC(C)C)NC(=O)[C@H](Cc3ccccc3)NC(=O)[C@H](C)NC(=O)[C@H](C)NC(=O)[C@H](CC(=O)O)NC(=O)[C@H](CC(=O)O)NC1=O)NC(=O)[C@H](CC(C)(C)C)NC(=O)[C@H](CC(=O)O)NC2=O (stereo partly drawn) [I-1235, Ac-PL3-Asp-Npg-B5-Asp-Asp-Ala-Ala-Phe-Leu-PyrS2-3Thi-2NapA-Gln-NH2] |
| 69 | 20900 | CC(=O)N1CCC[C@]12CC=CCCCC1(CCCC=CCCCOC(=O)N3CC[C@@](C(=O)N[C@@H](Cc4ccccc4Cl)C(=O)N[C@@H](Cc4cccc5ccccc45)C(=O)N[C@@H](CCC(N)=O)C(N)=O)(C3)NC(=O)[C@H](CC(C)C)NC(=O)[C@H](Cc3ccccc3)NC(=O)[C@H](C)NC(=O)[C@H](C)NC(=O)[C@H](CC(=O)O)NC(=O)[C@H](CC(=O)O)NC1=O)NC(=O)[C@H](CC(C)(C)C)NC(=O)[C@H](CC(=O)O)NC2=O (stereo partly drawn) [I-1236, Ac-PL3-Asp-Npg-B5-Asp-Asp-Ala-Ala-Phe-Leu-PyrS2-2C1F-1NapA-Gln-NH2] |
| 31 | 39900 | CC(=O)N1CCC[C@]12CC=CCCCC1(CCCC=CCCCOC(=O)N3CC[C@@](C(=O)N[C@@H](Cc4ccccc4Cl)C(=O)N[C@@H](Cc4ccc5ccccc5c4)C(=O)N[C@@H](CCC(N)=O)C(N)=O)(C3)NC(=O)[C@H](CC(C)C)NC(=O)[C@H](Cc3ccccc3)NC(=O)[C@H](C)NC(=O)[C@H](C)NC(=O)[C@H](CC(=O)O)NC(=O)[C@H](CC(=O)O)NC1=O)NC(=O)[C@H](CC(C)(C)C)NC(=O)[C@H](CC(=O)O)NC2=O (stereo partly drawn) [I-1237, Ac-PL3-Asp-Npg-B5-Asp-Asp-Ala-Ala-Phe-Leu-PyrS2-2C1F-2NapA-Gln-NH2] |
| 44 | 23100 | CC(=O)N1CCC[C@]12CC=CCCCC1(CCCC=CCCCOC(=O)N3CC[C@@](C(=O)N[C@@H](Cc4ccsc4)C(=O)N[C@@H](Cc4cccc5ccccc45)C(=O)N[C@@H](CO)C(N)=O)(C3)NC(=O)[C@H](CC(C)C)NC(=O)[C@H](Cc3ccccc3)NC(=O)[C@H](C)NC(=O)[C@H](C)NC(=O)[C@H](CC(=O)O)NC(=O)[C@H](CC(=O)O)NC1=O)NC(=O)[C@H](CC(C)(C)C)NC(=O)[C@H](CC(=O)O)NC2=O (stereo partly drawn) [I-1238, Ac-PL3-Asp-Npg-B5-Asp-Asp-Ala-Ala-Phe-Leu-PyrS2-3Thi-1NapA-Ser-NH2] |
| 33 | 31800 | CC(=O)N1CCC[C@]12CC=CCCCC1(CCCC=CCCCOC(=O)N3CC[C@@](C(=O)N[C@@H](Cc4ccsc4)C(=O)N[C@@H](Cc4ccc5ccccc5c4)C(=O)N[C@@H](CO)C(N)=O)(C3)NC(=O)[C@H](CC(C)C)NC(=O)[C@H](Cc3ccccc3)NC(=O)[C@H](C)NC(=O)[C@H](C)NC(=O)[C@H](CC(=O)O)NC(=O)[C@H](CC(=O)O)NC1=O)NC(=O)[C@H](CC(C)(C)C)NC(=O)[C@H](CC(=O)O)NC2=O (stereo partly drawn) [I-1239, Ac-PL3-Asp-Npg-B5-Asp-Asp-Ala-Ala-Phe-Leu-PyrS2-3Thi-2NapA-Ser-NH2] |
